Experiment [1] has as its target factor Xa (Homo sapiens, UniProt P00742). The experiment is described as follows: Factor Xa inhibition (FXa-IC50). The class given is biochemical. The text has this:
The inhibition of factor Xa by the compounds according to the invention and the measurement of the anticoagulant and antithrombotic activity can be determined by conventional in-vitro or in-vivo methods. A suitable method is described, for example, by J. Hauptmann et al. in Thrombosis and Haemostasis 1990, 63, 220-223.
The inhibition of factor Xa can be measured, for example by the method of T. Hara et al. in Thromb. Haemostas. 1994, 71, 314-319.

Experiment [2] deals with TF/FVIIa (Homo sapiens, UniProt P08709). Kind of experiment: TF/factor VIIa inhibition (TF/FVIIa-IC50). The class given is biochemical. The text has this: The inhibition of factor VIIa by the compounds according to the invention and the measurement of the anticoagulant and antithrombotic activity can be determined by conventional in-vitro or in-vivo methods. A conventional method for the measurement of the inhibition of factor VIIa is described, for example, by H. F. Ronning et al. in Thrombosis Research 1996, 84, 73-81.
TF/FVIIa, sequence (P08709 213-466 limits assumed): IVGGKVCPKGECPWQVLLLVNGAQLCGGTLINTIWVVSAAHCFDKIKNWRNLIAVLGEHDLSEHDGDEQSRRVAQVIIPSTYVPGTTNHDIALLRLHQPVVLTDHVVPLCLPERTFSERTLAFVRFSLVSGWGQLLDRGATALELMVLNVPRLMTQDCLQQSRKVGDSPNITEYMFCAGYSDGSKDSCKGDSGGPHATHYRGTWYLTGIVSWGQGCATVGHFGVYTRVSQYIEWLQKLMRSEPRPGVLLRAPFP
TF/FVIIa, sequence (P08709 61-212 limits assumed): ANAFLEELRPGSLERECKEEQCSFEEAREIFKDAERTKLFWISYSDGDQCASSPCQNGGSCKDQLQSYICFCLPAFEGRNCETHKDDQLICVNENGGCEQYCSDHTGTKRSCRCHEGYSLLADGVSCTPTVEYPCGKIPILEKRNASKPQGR
TF/FVIIa, sequence (P13726 33-295 partner): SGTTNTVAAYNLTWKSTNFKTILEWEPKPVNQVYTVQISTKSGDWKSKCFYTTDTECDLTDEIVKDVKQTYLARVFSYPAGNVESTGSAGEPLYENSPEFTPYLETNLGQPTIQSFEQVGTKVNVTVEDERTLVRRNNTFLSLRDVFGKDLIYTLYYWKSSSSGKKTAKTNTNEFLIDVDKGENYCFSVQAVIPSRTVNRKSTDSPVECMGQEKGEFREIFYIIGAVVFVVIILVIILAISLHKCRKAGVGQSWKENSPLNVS

As usually defined, the IC50 is the concentration needed to halve the response being measured.

factor Xa, sequence (P00742 235-488 limits assumed): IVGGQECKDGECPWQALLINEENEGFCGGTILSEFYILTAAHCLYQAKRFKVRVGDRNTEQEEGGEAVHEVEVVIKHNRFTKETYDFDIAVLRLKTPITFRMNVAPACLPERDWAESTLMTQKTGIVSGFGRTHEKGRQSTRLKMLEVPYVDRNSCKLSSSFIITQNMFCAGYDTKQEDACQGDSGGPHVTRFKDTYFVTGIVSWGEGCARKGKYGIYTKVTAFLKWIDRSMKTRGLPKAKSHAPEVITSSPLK
factor Xa, sequence (P00742 41-179 limits assumed): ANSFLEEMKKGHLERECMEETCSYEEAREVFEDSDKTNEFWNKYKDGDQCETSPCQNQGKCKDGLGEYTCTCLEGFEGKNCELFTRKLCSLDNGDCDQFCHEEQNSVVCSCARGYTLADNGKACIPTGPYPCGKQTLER

In the case of `N=C1CCCN1c1ccc(NC(=O)c2cc(C(F)(F)F)nn2-c2cccc(CN)c2)cc1` [AA, N-[4-(2-iminopyrrolidin-1-yl)phenyl]-2-(3-aminomethylphenyl)-5-trifluoromethyl-2H-pyrazole-3-carboxamide], the IC50 came to 9.6 nM in experiment [1] and 23 nM in experiment [2].

As to `NC(=O)c1cccc(-n2nc(C(F)(F)F)cc2C(=O)Nc2ccc(N3CCCC3=S)c(Cl)c2)c1` [BB, N-[3-chloro-4-(2-thioxopyrrolidin-1-yl)phenyl]-2-(3-aminocarbonylphenyl)-5-trifluoromethyl-2H-pyrazole-3-carboxamide], the IC50 turned out to be 330 nM in experiment [1] and 180 nM in experiment [2].

As for `N#CN=C1NCCN1c1ccc(NC(=O)c2cc(C(F)(F)F)nn2-c2cccc(C(N)=O)c2)cc1` [CA, N-[4-(2-cyanoiminoimidazolidin-1-yl)phenyl]-2-(3-aminocarbonylphenyl)-5-trifluoromethyl-2H-pyrazole-3-carboxamide], the IC50 in experiment [1] came to 200 nM; in experiment [2] it was 69 nM.

With `CCc1nn(-c2ccc(NC(=O)c3cc(C(F)(F)F)nn3-c3cccc(C(N)=O)c3)cc2)c(=N)s1` [CB, N-[4-(2-imino-5-ethyl-3H-1,3,4-thiadiazol-3-yl)phenyl]-2-(3-aminocarbonylphenyl)-5-trifluoromethyl-2H-pyrazole-3-carboxamide], the IC50 stood at 92 nM in experiment [1] and 150 nM in experiment [2].
